CC[C@H](C)[C@H]1O[C@]2(CC[C@@H]1C)C[C@@H]1C[C@@H](C/C=C(\C)[C@@H](O[C@H]3C[C@H](OC)[C@@H](O[C@H]4C[C@H](OC)[C@@H](O)[C@H](C)O4)[C@H](C)O3)[C@@H](C)/C=C/C=C3\CO[C@@H]4[C@H](O)C(C)=C[C@@H](C(=O)O1)[C@]34O)O2
solubility (mole fraction)
Conditions | 293.2 K | 298.2 K | 303.2 K | 308.2 K | 313.2 K
in isopropanol | 0.0675 | 0.0823 | 0.0915 | 0.0967 | 0.106
in n-propanol | 0.089 | 0.105 | 0.115 | 0.122 | 0.136
in water | 5.1e-06 | 5.6e-06 | 6.1e-06 | 6.5e-06 | 6.9e-06

Reference: BigSolDB 2.1
